In US12577231B2, “Androgen receptor PROTACS” (GlaxoSmithKline Intellectual Property Development Limited, priority 2023, dated 2026):
Numbering of substitutions follows the chain as printed.

What was measured:
[1] = biological target: T1, Androgen receptor L702H (Homo sapiens, UniProt P10275, L702H); test: Degradation of overexpressed Androgen Receptor in A549 cells (HiBiT), L702H; format: cell-based; settings: A549 cells overexpressing AR L702H, cycloheximide, 24 hours
T1 construct: expressed in transfected cells; host or cells: A549, transduced, puromycin selected
T1 sequence (P10275 1-920 L702H): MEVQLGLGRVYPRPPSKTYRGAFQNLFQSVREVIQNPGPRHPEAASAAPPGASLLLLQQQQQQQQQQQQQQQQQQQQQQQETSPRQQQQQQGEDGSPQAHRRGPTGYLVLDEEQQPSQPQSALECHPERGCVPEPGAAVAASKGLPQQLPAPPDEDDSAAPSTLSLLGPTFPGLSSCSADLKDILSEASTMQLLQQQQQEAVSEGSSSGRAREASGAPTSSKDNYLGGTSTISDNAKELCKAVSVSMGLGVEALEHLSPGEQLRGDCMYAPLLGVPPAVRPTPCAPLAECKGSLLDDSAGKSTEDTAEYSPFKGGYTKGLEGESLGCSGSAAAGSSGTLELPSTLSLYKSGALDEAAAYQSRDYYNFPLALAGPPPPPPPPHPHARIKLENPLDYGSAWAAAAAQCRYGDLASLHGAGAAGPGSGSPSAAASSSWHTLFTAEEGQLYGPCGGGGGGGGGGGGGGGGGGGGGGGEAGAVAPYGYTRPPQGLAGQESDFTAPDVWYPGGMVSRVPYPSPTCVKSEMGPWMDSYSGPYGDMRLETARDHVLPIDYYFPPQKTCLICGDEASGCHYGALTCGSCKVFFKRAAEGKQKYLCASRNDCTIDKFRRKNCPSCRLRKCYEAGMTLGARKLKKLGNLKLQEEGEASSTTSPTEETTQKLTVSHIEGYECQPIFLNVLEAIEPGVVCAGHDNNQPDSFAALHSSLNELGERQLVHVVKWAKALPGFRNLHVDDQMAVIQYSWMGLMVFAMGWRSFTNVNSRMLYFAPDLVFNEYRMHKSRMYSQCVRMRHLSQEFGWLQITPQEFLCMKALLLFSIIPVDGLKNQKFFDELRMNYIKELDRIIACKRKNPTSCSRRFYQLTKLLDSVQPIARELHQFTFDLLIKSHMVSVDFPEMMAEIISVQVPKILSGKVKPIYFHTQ
Description: (§1) A549 cells were transduced to express wild type androgen receptor and Androgen receptor containing the following mutations (L702H, H875Y W742C W742L F877L, T878A and T878A/H875Y) with HiBiT tags. Transduced cells following puromycin selection were maintained in a humidified incubator (at 37° C. and 5% CO2 in the DMEM medium supplemented with 1% (v/v) Pen/Strep, 1% (v/v) Glutamax and 10% (v/v) FBS. A549 cells expressing each AR construct were detached from plate and counted. Cell suspensions at density 0.2 million per mL were prepared. Cell suspension was supplemented with 100 μg/mL of cycloheximide to block protein synthesis. Cells were preincubated with cycloheximide for 1 hr before seeding. Cells were seeded onto 384-well plate at density of 5,000 in 25 μL per well. A two fold serial dilution of test compounds, starting from 1 μM (row A) in 2-fold serial dilution series across the column using Tecan D300e dispenser. […]
(§2) Nano-Glo HiBiT Lytic reagent was prepared by adding LgBiT protein and Nano-Glo® substrate to lytic buffer pre-equilibrated at room temperature following manufacturer protocol (https://www.promega.co.uk/resources/protocols/technical-manuals/101/nanoglo-luciferase-assay-system-protocol). […] The plates were then centrifuged (100×G, 1 min) and incubated on shaker for 10 mins before taking readings on Pherastar Luminescence microplate reader. […]

[2] = biological target: T2, Androgen receptor W742C (Homo sapiens, UniProt P10275, W742C); test: Degradation of overexpressed Androgen Receptor in A549 cells (HiBiT), W742C; format: cell-based; settings: A549 cells overexpressing AR W742C, cycloheximide, 24 hours
T2 construct: expressed in transfected cells; host or cells: A549, transduced, puromycin selected
T2 sequence (P10275 1-920 W742C): T1 sequence (P10275 1-920 L702H) with H702L, W742C
Description: as §1, §2

Structure (SMILES): COc1cc(O[C@H]2C(C)(C)[C@H](NC(=O)c3ccc(N4CCC(CN5CCC(n6ncc7c(N8CCC(=O)NC8=O)nccc76)CC5)CC4)c(F)c3)C2(C)C)ccc1C#N [Example 20, N-((1r,3r)-3-(4-Cyano-3-methoxyphenoxy)-2,2,4,4-tetramethylcyclobutyl)-4-(4-((4-(4-(2,4-dioxotetrahydropyrimidin-1(2H)-yl)-1H-pyrazolo[4,3-c]pyridin-1-yl)piperidin-1-yl)methyl)piperidin-1-yl)-3-fluorobenzamide]
- Summary pXC50 [1]: 9.00
- Summary pXC50 [2]: 8.57
